Key:
A549 = experiment: Cytotoxicity against human A549 cells by SRB method; type: cell-based; conditions: for IC50: Homo sapiens, A549; for Activity: human, a549
P388 = experiment: Cytotoxicity against mouse P388 cells by MTT method; type: cell-based; conditions: for IC50: Mus musculus, P388; for Activity: mouse, p388

Row | Compound | IC50 (A549) | IC50 (P388) | Activity (A549) | Activity (P388)
1 | CCC(C)C(=O)O[C@@H]1C([C@@H](OC(C)=O)[C@@]2(O)C(=O)CC[C@]3(C)C2=CC(=O)O[C@H]3c2ccoc2)C(=O)[C@H](C)[C@@H](CC(=O)OC)C1(C)C (stereo partly specified) [GRANAXYLOCARPIN A] | > 10 µM | 9.3 µM | – | –
2 | C/C=C(\C)C(=O)O[C@H](C1=CC(C)(C)[C@H](CC(=O)OC)[C@@H](C)C1=O)[C@@]1(O)C(=O)CC[C@]2(C)C1=CC(=O)O[C@H]2c1ccoc1 [GRANAXYLOCARPIN B] | > 10 µM | 4.9 µM | – | –
3 | C/C=C(\C)C(=O)O[C@@H]1[C@@H]2[C@H]3O[C@@]34[C@H](CC[C@@]3(C)[C@H](c5ccoc5)OC(=O)C[C@@]43O)[C@]3(C)[C@@H](CC(=O)OC)[C@]1(C)CO[C@]23O [GRANAXYLOCARPIN C] | – | – | Not Active | Not Active
4 | COC(=O)[C@H](O)[C@H]1[C@]2(C)C[C@]3(OC(C)=O)[C@H]([C@H]2OC(C)=O)[C@@H](OC(C)=O)[C@]2(O)[C@@H]4CC(=O)O[C@@H](c5ccoc5)[C@]4(C)[C@@H](OC(C)=O)C[C@@H]2[C@]13C [GRANAXYLOCARPIN D] | – | – | Not Active | Not Active
5 | COC(=O)[C@H](OC(C)=O)[C@H]1[C@]2(C)C[C@]3(OC(C)=O)[C@H]([C@H]2OC(C)=O)[C@@H](OC(C)=O)[C@]2(O)[C@@H]4CC(=O)O[C@@H](c5ccoc5)[C@]4(C)CC[C@@H]2[C@]13C [GRANAXYLOCARPIN E] | – | – | Not Active | Not Active
6 | COC(=O)C1=CC[C@@]23CC[C@@H]([C@@](C)(/C=C/C=C(\C)C(=O)O)OC2=O)[C@@]3(OC(C)=O)CC1 [PSEUDOLARIC ACID B] | – | 0.74 µM | – | –
